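Where inhibition never reached the appropriate level, the endpoint shown equals the highest concentration tested. Otherwise, values were interpolated linearly from a five-concentration, 48-hour dose response in 96-well plates. The concentration for full growth arrest is given as TGI.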
How the values were obtained:
Assay in all cases: growth of human tumour cells (NCI), 48 h
[1] = test system: HCC-2998 colon
[2] = test system: SK-MEL-5 melanoma
[3] = test system: SF-268 CNS
[4] = test system: ACHN renal
[5] = test system: RXF 393 renal
[6] = test system: BT-549 breast
[7] = test system: KM12 colon
[8] = test system: 786-0 renal
[9] = test system: K-562 leukemia
[10] = test system: HCT-116 colon
[11] = test system: HS 578T breast
[12] = test system: CCRF-CEM leukemia
[13] = test system: NCI-H460 lung
[14] = test system: CAKI-1 renal
[15] = test system: SN12C renal
[16] = test system: SNB-19 CNS
[17] = test system: NCI/ADR-RES ovarian
[18] = test system: HOP-62 NSCLC
[19] = test system: MALME-3M melanoma
[20] = test system: MOLT-4 leukemia
[21] = test system: COLO 205 colon
[22] = test system: SK-MEL-28 melanoma
[23] = test system: TK-10 renal
[24] = test system: T-47D breast
[25] = test system: M14 melanoma
[26] = test system: RPMI-8226 leukemia
[27] = test system: LOX IMVI melanoma
[28] = test system: SR leukemia
[29] = test system: NCI-H23 lung
[30] = test system: UO-31 renal
[31] = test system: EKVX NSCLC
[32] = test system: SK-OV-3 ovarian
[33] = test system: MDA-MB-231 breast
[34] = test system: SW-620 colon
[35] = test system: PC-3 prostate
[36] = test system: IGROV1 ovarian
[37] = test system: HCT-15 colon
[38] = test system: UACC-257 melanoma
[39] = test system: NCI-H226 lung
[40] = test system: MDA-MB-435
[41] = test system: HOP-92 NSCLC
[42] = test system: HT29 colon
[43] = test system: MCF7 breast
[44] = test system: OVCAR-8 ovarian
[45] = test system: OVCAR-4 ovarian
[46] = test system: DU-145 prostate
[47] = test system: A549 NSCLC
[48] = test system: OVCAR-3 ovarian
[49] = test system: SF-539 CNS
[50] = test system: HL-60(TB) leukemia
[51] = test system: NCI-H522 lung
[52] = test system: SNB-75 CNS
[53] = test system: UACC-62 melanoma
[54] = test system: A498 renal

Which results are given for `Cc1ccc(NC(Nc2ccc(C)cc2C)=C(C(Cl)=C(Cl)Cl)[N+](=O)[O-])c(C)c1`?
TGI [1]: 32.4 µM; TGI [2]: 14.4 µM; TGI [3]: 33.2 µM; TGI [4]: 28.5 µM; TGI [5]: 32.6 µM; TGI [6]: 38.8 µM; TGI [7]: 29.2 µM; TGI [8]: 30.1 µM; TGI [9]: 24.6 µM; TGI [10]: 26.7 µM; TGI [11]: > 100 µM; TGI [12]: 15.2 µM; TGI [13]: 29.7 µM; TGI [14]: 37.4 µM; TGI [15]: 33 µM; TGI [16]: 30 µM; TGI [17]: > 100 µM; TGI [18]: 34.2 µM; TGI [19]: 31.8 µM; TGI [20]: 31.2 µM; TGI [21]: 32 µM; TGI [22]: 35.2 µM; TGI [23]: 33 µM; TGI [24]: 32.1 µM; TGI [25]: 21.3 µM; TGI [26]: 52.8 µM; TGI [27]: 20.4 µM; TGI [28]: 11.3 µM; TGI [29]: 20 µM; TGI [30]: 26.6 µM; TGI [31]: 29.8 µM; TGI [32]: 39.8 µM; TGI [33]: 33 µM; TGI [34]: 33.1 µM; TGI [35]: 25 µM; TGI [36]: 29.2 µM; TGI [37]: 32.3 µM; TGI [38]: 35.7 µM; TGI [39]: 32.3 µM; TGI [40]: 17.2 µM; TGI [41]: 31.7 µM; TGI [42]: 33.3 µM; TGI [43]: > 100 µM; TGI [44]: 33.9 µM; TGI [45]: 33.2 µM; TGI [46]: 27.9 µM; TGI [47]: 28.4 µM; TGI [48]: 29.7 µM; TGI [49]: 43 µM; TGI [50]: 22 µM; TGI [51]: 28 µM; TGI [52]: 22.1 µM; TGI [53]: 31.9 µM; TGI [54]: 36.3 µM
